Series [1] has as its system U-251. In words: Anticancer activity against human U-251 cells assessed as cell growth inhibition inhibition incubated for 3 days. In kind it is functional, cell-based. To be noted: U-251, 72 h.
The test system of series [2] is LN-229. Put plainly: Anticancer activity against human LN-229 cells assessed as cell growth inhibition inhibition incubated for 3 days. In kind it is functional, cell-based. To be noted: LN-229, 72 h.
Series [3] is described as follows: Lipophilicity, logP of compound. The series is classed as physicochemical. The conditions noted are these: octanol/water.
Series [4] in a line: Anticancer activity against human D-54MG cells assessed as cell growth inhibition inhibition incubated for 3 days. In kind it is functional, cell-based. The conditions noted are these: D54MG, 72 h.
Series [5] can be described thus: Anticancer activity against patient-derived DB70 cells assessed as cell growth inhibition inhibition incubated for 3 days. The series is classed as functional, cell-based. To be noted: Homo sapiens, DB70, 72 h.
Series [6] can be described thus: Anticancer activity against patient-derived DB93 cells assessed as cell growth inhibition incubated for 3 days. The series is classed as functional, cell-based. To be noted: Homo sapiens, DB93, 72 h.

Molecules are shown by their SMILES.

Consider `CCC1=C(C)/C(=C/c2ccc(C(=O)Nc3ccc4[nH]c(C(F)(F)F)nc4c3)cc2)CCC1(C)C`, for which the IC50 in series [1] and in series [2] was more than 100 µM in each case. Besides, the logP – broadly, the decadic logarithm of the partition coefficient of the neutral form, usually between octanol and water – in series [3] (read-out: logP) was determined as 6.37.
With `CCC1=C(C)/C(=C/c2ccc(C(=O)Nc3ccc(O)cc3)cc2)CCC1(C)C`, the IC50 in series [4] and in series [1] was more than 100 µM in each case. The logP in series [3] (read-out: logP) stood at 5.63.
In the case of `CCC1=C(C)/C(=C/c2ccc(-c3noc(-c4cccnc4)n3)cc2)CCC1(C)C`, the IC50 (as a rule, the concentration needed to halve the response being measured) was found to be 37.8 µM in series [1] and 35.6 µM in series [2]. In addition, the logP in series [3] (read-out: logP) worked out at 6.22.
Consider `CCC1=C(C)/C(=C/c2ccc(/C(N)=N/O)cc2)CCC1(C)C`, for which the IC50 in series [4] is 66.6 µM; in series [1], 56.8 µM. The logP in series [3] (read-out: logP) was found to be 4.53.
The corresponding values for `CCC1=C(C)/C(=C/c2ccc(-c3noc(-c4ccc(Br)cc4)n3)cc2)CCC1(C)C` are more than 100 µM, 7 µM and 8.39.
Turning to `CCC1=C(C)/C(=C/c2ccc(C(=O)Nc3nc4ccccc4s3)cc2)CCC1(C)C`, the concentration for half-maximal inhibition (IC50) turned out to be 6.64 µM in series [4]; 19.3 µM in series [1]; 22.8 µM in series [2]; 6.67 µM in series [5]; 3.54 µM in series [6]. The logP in series [3] (read-out: logP) came to 7.22.
Regarding `CCC1=C(C)/C(=C/c2ccc(C(=O)Nc3ccc(Cl)cc3Cl)cc2)CCC1(C)C`, the logP in series [3] (read-out: logP) came to 7.14.
As to `Cn1nnc2c(C(N)=O)ncn2c1=O` [TEMOZOLOMIDE], the IC50 in series [4] was more than 500 µM; in series [1] it was more than 500 µM; in series [2] it was more than 1000 µM; in series [5], 25.4 µM; in series [6] it was more than 500 µM. In series [3], this compound came in with a logP of -1.15.
As to `CCC1=C(C)/C(=C/c2ccc(C3=NOB(c4ccccc4)N3)cc2)CCC1(C)C`, the IC50 in series [4] turned out to be 47.4 µM; in series [1], 26.8 µM; in series [2], 60 µM; in series [5] it was 13.3 µM; in series [6], 8.31 µM. Moreover, in series [3] (read-out: logP), the logP was 6.5.
`CCC1=C(C)/C(=C/c2ccc(C(=O)Nc3ccc(C(F)(F)F)cc3)cc2)CCC1(C)C`: the IC50 in series [4] is 3.81 µM; in series [1], 6.04 µM; in series [2] it was 5.93 µM; in series [5], more than 50 µM; in series [6], more than 50 µM. The logP in series [3] (read-out: logP) came out at 6.94.
For `CCC1=C(C)/C(=C/c2ccc(C(=O)Nc3nc4ccccc4[nH]3)cc2)CCC1(C)C`, the results for the concentration for half-maximal inhibition (IC50) in series [1] and in series [2] were 4.47 µM and more than 75 µM, respectively. Also, in series [3] (read-out: logP), the logP came to 5.78.
As for `CCC1=C(C)/C(=C/c2ccc(C(=O)Nc3nccs3)cc2)CCC1(C)C`, the IC50 in series [1] and in series [2] was more than 100 µM in each case. In addition, in series [3] (read-out: logP), the logP is 5.74.
As for `CCC1=C(C)/C(=C/c2ccc(-c3noc(-c4ccccc4OC(F)(F)F)n3)cc2)CCC1(C)C`, the half-inhibitory concentration (IC50) turned out to be 65.6 µM in series [4] and 58.4 µM in series [1]. Besides, in series [3], the logP is on record as 9.09.
Take `CCC1=C(C)/C(=C/c2ccc(C(=O)Nc3ccc(OC(F)(F)F)cc3)cc2)CCC1(C)C`: the results for the IC50 in series [1] and in series [2] were 20.7 µM and 47.5 µM, respectively. Moreover, in series [3] (read-out: logP), the logP worked out at 7.55.
In the case of `CCC1=C(C)/C(=C/c2ccc(-c3noc(-c4ccc(Cl)cc4)n3)cc2)CCC1(C)C`, the IC50 was more than 100 µM in series [4] and 10 µM in series [1]. Also, in series [3] (read-out: logP), the logP is 8.12.
Taken in the same sequence, the figures for `CCC1=C(C)/C(=C/c2ccc(C(=O)Nc3nc4ccc(Br)cc4s3)cc2)CCC1(C)C` were 100 µM, 75 µM and 8.05.
Take `CCC1=C(C)/C(=C/c2ccc(C(=O)NC(=N)N)cc2)CCC1(C)C`: the IC50 in series [4] came out at 5.6 µM; in series [1] it was 5.06 µM; in series [2] it was 6.54 µM; in series [5], 1.77 µM; in series [6], 2.09 µM. The logP in series [3] (read-out: logP) worked out at 3.98.
Turning to `CCC1=C(C)/C(=C/c2ccc(C#N)cc2)CCC1(C)C`, the IC50 in series [4] is 72.2 µM; in series [1], 83.8 µM. The logP in series [3] (read-out: logP) was found to be 5.25.
Consider `CCC1=C(C)/C(=C/c2ccc(-c3noc(-c4ccncc4)n3)cc2)CCC1(C)C`, for which the IC50 in series [1] and in series [2] was more than 100 µM each time. The logP in series [3] (read-out: logP) is 6.22.

Values taken from ChEMBL document CHEMBL5321241, “Identification of new hit to lead magmas inhibitors as potential therapeutics for glioblastoma” (Bioorg Med Chem Lett, 2023).
